Test results reported in US12077503B2, “Substituted cyclic amides and their use as herbicides” (FMC CORPORATION, priority 2015, dated 2024).

Key:
Type in all cases: in vivo
Kochia (Kochia scoparia) [1] = assay: Test A postemergence; conditions: postemergence; for Kochia plant response rating: 125 g ai/ha, visual injury rating on 0 to 100 scale (0 no effect, 100 complete control), approx. 10 d; for Plant response rating, Kochia: 500 g ai/ha, 0 to 100 scale, 0 no effect, 100 complete control
Outline: (§1)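 Compounds were formulated in a non-phytotoxic solvent mixture with surfactant and applied as a preemergence directed soil spray after seeding, or sprayed postemergence over plants 2 to 10 cm tall at the one- to two-leaf stage. Evaluation after about 10 d compared treated with untreated controls, using a scale from 0 (no effect) to 100 (complete control).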

[2] = test system: giant foxtail (Setaria faberii); assay: Test A postemergence; conditions: postemergence; for Foxtail, Giant plant response rating: 125 g ai/ha, visual injury rating on 0 to 100 scale (0 no effect, 100 complete control), approx. 10 d; for Plant response rating, Foxtail, Giant: 500 g ai/ha, 0 to 100 scale, 0 no effect, 100 complete control
Outline: as §1

[3] = test system: pigweed (Amaranthus retroflexus); assay: Test A postemergence; conditions: postemergence; for Pigweed plant response rating: 125 g ai/ha, visual injury rating on 0 to 100 scale (0 no effect, 100 complete control), approx. 10 d; for Plant response rating, Pigweed: 500 g ai/ha, 0 to 100 scale, 0 no effect, 100 complete control
Outline: as §1

[4] = test system: ryegrass, Italian (Italian ryegrass, Lolium multiflorum); assay: Test A postemergence; conditions: postemergence; for Ryegrass, Italian plant response rating: 125 g ai/ha, visual injury rating on 0 to 100 scale (0 no effect, 100 complete control), approx. 10 d; for Plant response rating, Ryegrass, Italian: 500 g ai/ha, 0 to 100 scale, 0 no effect, 100 complete control
Outline: as §1

[5] = test system: wheat (Triticum aestivum); assay: Test A postemergence; conditions: postemergence; for Wheat plant response rating: 125 g ai/ha, visual injury rating on 0 to 100 scale (0 no effect, 100 complete control), approx. 10 d; for Plant response rating, Wheat: 500 g ai/ha, 0 to 100 scale, 0 no effect, 100 complete control
Outline: as §1

[6] = test system: Galium (catchweed bedstraw, Galium aparine); assay: Test A postemergence; conditions: postemergence; for Galium plant response rating: 125 g ai/ha, visual injury rating on 0 to 100 scale (0 no effect, 100 complete control), approx. 10 d; for Plant response rating, Galium: 500 g ai/ha, 0 to 100 scale, 0 no effect, 100 complete control
Outline: as §1

corn (Zea mays) = assay: Test A postemergence; conditions: postemergence; for Corn plant response rating: 125 g ai/ha, visual injury rating on 0 to 100 scale (0 no effect, 100 complete control), approx. 10 d; for Plant response rating, Corn: 500 g ai/ha, 0 to 100 scale, 0 no effect, 100 complete control
Outline: as §1

[7] = test system: blackgrass (Alopecurus myosuroides); assay: Test A postemergence; conditions: postemergence; for Blackgrass plant response rating: 125 g ai/ha, visual injury rating on 0 to 100 scale (0 no effect, 100 complete control), approx. 10 d; for Plant response rating, Blackgrass: 500 g ai/ha, 0 to 100 scale, 0 no effect, 100 complete control
Outline: as §1

[8] = test system: ragweed (common ragweed, Ambrosia elatior); assay: Test A postemergence; conditions: postemergence; for Ragweed plant response rating: 125 g ai/ha, visual injury rating on 0 to 100 scale (0 no effect, 100 complete control), approx. 10 d; for Plant response rating, Ragweed: 500 g ai/ha, 0 to 100 scale, 0 no effect, 100 complete control
Outline: as §1

[9] = test system: barnyardgrass (Echinochloa crus-galli); assay: Test A postemergence; conditions: postemergence; for Barnyardgrass plant response rating: 125 g ai/ha, visual injury rating on 0 to 100 scale (0 no effect, 100 complete control), approx. 10 d; for Plant response rating, Barnyardgrass: 500 g ai/ha, 0 to 100 scale, 0 no effect, 100 complete control
Outline: as §1

Kochia (Kochia scoparia) [10] = assay: Test A preemergence; conditions: for Plant response rating, Kochia: 125 g ai/ha, preemergence, 0 to 100 scale (0 no effect, 100 complete control); for Kochia plant response rating (0 to 100 scale, 0 is no effect, 100 is complete control): Preemergence, 500 g ai/ha, visual injury approx. 10 d
Outline: as §1

[11] = test system: giant foxtail (Setaria faberii); assay: Test A preemergence; conditions: for Plant response rating, Foxtail, Giant: 125 g ai/ha, preemergence, 0 to 100 scale (0 no effect, 100 complete control); for Foxtail, Giant plant response rating (0 to 100 scale, 0 is no effect, 100 is complete control): Preemergence, 500 g ai/ha, visual injury approx. 10 d
Outline: as §1

[12] = test system: pigweed (Amaranthus retroflexus); assay: Test A preemergence; conditions: for Plant response rating, Pigweed: 125 g ai/ha, preemergence, 0 to 100 scale (0 no effect, 100 complete control); for Pigweed plant response rating (0 to 100 scale, 0 is no effect, 100 is complete control): Preemergence, 500 g ai/ha, visual injury approx. 10 d
[13] = test system: ryegrass, Italian (Italian ryegrass, Lolium multiflorum); assay: Test A preemergence; conditions: for Plant response rating, Ryegrass, Italian: 125 g ai/ha, preemergence, 0 to 100 scale (0 no effect, 100 complete control); for Ryegrass, Italian plant response rating (0 to 100 scale, 0 is no effect, 100 is complete control): Preemergence, 500 g ai/ha, visual injury approx. 10 d
Outline: as §1

[14] = test system: ragweed (common ragweed, Ambrosia elatior); assay: Test A preemergence; conditions: for Plant response rating, Ragweed: 125 g ai/ha, preemergence, 0 to 100 scale (0 no effect, 100 complete control); for Ragweed plant response rating (0 to 100 scale, 0 is no effect, 100 is complete control): Preemergence, 500 g ai/ha, visual injury approx. 10 d
Outline: as §1

[15] = test system: barnyardgrass (Echinochloa crus-galli); assay: Test A preemergence; conditions: for Plant response rating, Barnyardgrass: 125 g ai/ha, preemergence, 0 to 100 scale (0 no effect, 100 complete control); for Barnyardgrass plant response rating (0 to 100 scale, 0 is no effect, 100 is complete control): Preemergence, 500 g ai/ha, visual injury approx. 10 d
Outline: as §1

rice (Oryra sativa) = assay: Test B flooded paddy test; conditions: Flood, 250 g ai/ha; 0 to 100 scale where 0 is no effect and 100 is complete control; 13 to 15 d
Outline: (§2)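 Evaluation by eye, against controls, occurred 13–15 d post-treatment in a greenhouse, using a 0 (no effect) to 100 (complete control) scale. Application was into the paddy water, 3 cm deep over the soil, on 2-leaf plants.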

[16] = test system: ducksalad (Heteranthera limosa); assay: Test B flooded paddy test; conditions: Flood, 250 g ai/ha; 0 to 100 scale where 0 is no effect and 100 is complete control; 13 to 15 d
Outline: as §2

[17] = test system: sedge, umbrella (small-flower umbrella sedge, Cyperus difformis); assay: Test B flooded paddy test; conditions: Flood, 250 g ai/ha; 0 to 100 scale where 0 is no effect and 100 is complete control; 13 to 15 d
Outline: as §2

[18] = test system: barnyardgrass (Echinochloa crus-galli); assay: Test B flooded paddy test; conditions: Flood, 250 g ai/ha; 0 to 100 scale where 0 is no effect and 100 is complete control; 13 to 15 d
Outline: as §2

| Compound | Kochia plant response rating (Kochia (Kochia scoparia) [1]) | Plant response rating, Kochia (Kochia (Kochia scoparia) [1]) | Foxtail, Giant plant response rating [2] | Plant response rating, Foxtail, Giant [2] | Pigweed plant response rating [3] | Plant response rating, Pigweed [3] | Ryegrass, Italian plant response rating [4] | Plant response rating, Ryegrass, Italian [4] | Wheat plant response rating [5] | Plant response rating, Wheat [5] | Galium plant response rating [6] | Plant response rating, Galium [6] | Corn plant response rating (corn (Zea mays)) | Plant response rating, Corn (corn (Zea mays)) | Blackgrass plant response rating [7] | Plant response rating, Blackgrass [7] | Ragweed plant response rating [8] | Plant response rating, Ragweed [8] | Barnyardgrass plant response rating [9] | Plant response rating, Barnyardgrass [9] | further results |
| --- | --- | --- | --- | --- | --- | --- | --- | --- | --- | --- | --- | --- | --- | --- | --- | --- | --- | --- | --- | --- | --- |
| CN1CC(c2ccc(Cl)cc2)C(C(=O)Nc2ccccc2S(C)(=O)=O)C1=O (stereo not drawn) [Compound 435] | 20 | 50 | 80 | 80 | 20 | 50 | 40 | 40 | 0 | 60 | 50 | 60 | 0 | 20 | 30 | 50 | 40 | 60 | 80 | 90 | Plant response rating, Kochia (Kochia (Kochia scoparia) [10]): 60; Kochia plant response rating (0 to 100 scale, 0 is no effect, 100 is complete control) (Kochia (Kochia scoparia) [10]): 80; Plant response rating, Foxtail, Giant [11]: 90; Foxtail, Giant plant response rating (0 to 100 scale, 0 is no effect, 100 is complete control) [11]: 90; Plant response rating, Pigweed [12]: 60; Pigweed plant response rating (0 to 100 scale, 0 is no effect, 100 is complete control) [12]: 80; Plant response rating, Ryegrass, Italian [13]: 0; Ryegrass, Italian plant response rating (0 to 100 scale, 0 is no effect, 100 is complete control) [13]: 20; Plant response rating, Ragweed [14]: 20; Ragweed plant response rating (0 to 100 scale, 0 is no effect, 100 is complete control) [14]: 70; Plant response rating, Barnyardgrass [15]: 80; Barnyardgrass plant response rating (0 to 100 scale, 0 is no effect, 100 is complete control) [15]: 90; Plant response rating, Rice (rice (Oryra sativa)): 0; Plant response rating, Ducksalad [16]: 90; Plant response rating, Sedge, Umbrella [17]: 0; Plant response rating, Barnyardgrass [18]: 60 |
| CN1CC(c2ccc(Cl)cc2)C(C(=O)Nc2ccc(F)cc2F)C1=O (stereo not drawn) [Compound 436] | 40 | 70 | 80 | 90 | 20 | 60 | 20 | 50 | 20 | 40 | 60 | 60 | 0 | 40 | 30 | 40 | 0 | 20 | 90 | 90 | Plant response rating, Kochia (Kochia (Kochia scoparia) [10]): 70; Kochia plant response rating (0 to 100 scale, 0 is no effect, 100 is complete control) (Kochia (Kochia scoparia) [10]): 80; Plant response rating, Foxtail, Giant [11]: 90; Foxtail, Giant plant response rating (0 to 100 scale, 0 is no effect, 100 is complete control) [11]: 100; Plant response rating, Pigweed [12]: 80; Pigweed plant response rating (0 to 100 scale, 0 is no effect, 100 is complete control) [12]: 90; Plant response rating, Ryegrass, Italian [13]: 40; Ryegrass, Italian plant response rating (0 to 100 scale, 0 is no effect, 100 is complete control) [13]: 60; Plant response rating, Ragweed [14]: 0; Ragweed plant response rating (0 to 100 scale, 0 is no effect, 100 is complete control) [14]: 50; Plant response rating, Barnyardgrass [15]: 90; Barnyardgrass plant response rating (0 to 100 scale, 0 is no effect, 100 is complete control) [15]: 100; Plant response rating, Rice (rice (Oryra sativa)): 0; Plant response rating, Ducksalad [16]: 100; Plant response rating, Sedge, Umbrella [17]: 0; Plant response rating, Barnyardgrass [18]: 60 |
| CN1CC(c2ccc(F)cc2)C(C(=O)Nc2ccccc2F)C1=O (stereo not drawn) [Compound 437] | 20 | 30 | 90 | 90 | 0 | 20 | 0 | 20 | 0 | 40 | 30 | 50 | 0 | 20 | 0 | 30 | 0 | 0 | 90 | 90 | Plant response rating, Kochia (Kochia (Kochia scoparia) [10]): 60; Kochia plant response rating (0 to 100 scale, 0 is no effect, 100 is complete control) (Kochia (Kochia scoparia) [10]): 70; Plant response rating, Foxtail, Giant [11]: 90; Foxtail, Giant plant response rating (0 to 100 scale, 0 is no effect, 100 is complete control) [11]: 100; Plant response rating, Pigweed [12]: 20; Pigweed plant response rating (0 to 100 scale, 0 is no effect, 100 is complete control) [12]: 80; Plant response rating, Ryegrass, Italian [13]: 0; Ryegrass, Italian plant response rating (0 to 100 scale, 0 is no effect, 100 is complete control) [13]: 50; Plant response rating, Ragweed [14]: 0; Ragweed plant response rating (0 to 100 scale, 0 is no effect, 100 is complete control) [14]: 60; Plant response rating, Barnyardgrass [15]: 90; Barnyardgrass plant response rating (0 to 100 scale, 0 is no effect, 100 is complete control) [15]: 90; Plant response rating, Rice (rice (Oryra sativa)): 0; Plant response rating, Ducksalad [16]: 100; Plant response rating, Sedge, Umbrella [17]: 0; Plant response rating, Barnyardgrass [18]: 65 |
